For one assay, the target named is T1, CSK (Homo sapiens, UniProt P41240).
T1 construct: purchased Thermo Fisher
Briefly: Human CSK enzymatic assay (AlphaScreen, Poly (Glu4-Tyr) substrate). The format is biochemical. The conditions noted are these: 100 uM ATP; read-out: CSK IC50 (μM) COFACTOR: 100 uM ATP. The procedure: This assay measures the ability of CSK to phosphorylate a biotinylated peptide containing multiple tyrosine residues in vitro. The CSK enzyme was purchased from Thermo Fisher. The biotinylated Poly (Glu4-Tyr) peptide substrate was purchased from Sigma-Aldrich. The CSK enzyme assay was performed using 0.75 ng CSK enzyme and 30 nM Poly (Glu4-Tyr) substrate in the presence of 25 mM Hepes pH 7.5, 5 mM Mg Acetate, 0.1% NP-40, 1 mM DTT, 0.01% BSA, and 100 μM ATP. A 19 μL volume of the above reaction mixture was added to wells of 384-well AlphaPlate (PerkinElmer GA, USA) containing 1 μL of various concentrations of test compound or DMSO vehicle and incubated for 60 minutes at room temperature. 16 wells containing all the components of reaction mixture and 5% DMSO serve as high control. 16 wells containing all the components except ATP of reaction mixture and 5% DMSO served as low control. The enzymatic reaction was stopped by the addition of 5 μL stop/detection mixture containing 25 mM Hepes pH 7.5 100 mM EDTA, and 5 μg/mL streptavidin-coated AlphaScreen donor beads (PerkinElmer GA, USA) and incubated for 20 minutes. A 5 μL mixture containing 25 mM Hepes pH 7.5, 100 mM EDTA, and 5 μg/mL anti-phosphotyrosine antibody PY20-coated AlphaScreen acceptor beads (PerkinElmer GA, USA) was added and the plate was incubated for 1 hour at room temperature. The streptavidin donor beads bind to the biotin moiety on the biotinylated Poly (Glu4-Tyr) substrate and the PY20 antibody-coated acceptor beads bind to tyrosine residues on the substrate that have been directly phosphorylated by CSK. Upon excitation of these beads with laser light at 680 nm, singlet oxygen was produced. This singlet oxygen was rapidly quenched, unless the AlphaScreen PY20 acceptor beads are in close proximity, in which case a proximity signal can be measured at 580 nm. In the presence of catalytic activity, there was a very strong proximity signal. Selective CSK inhibitors affect a decrease in this proximity signal through a decrease in phosphorylation of the Poly (Glu4-Tyr) substrate. The percentage of inhibition at individual concentrations relative to high and low controls was calculated. The data were analyzed by using nonlinear regression to generate IC50 values. Human LCK enzymatic assay

For a further assay, the system named is Jurkat/NFAT-RE cells. The assay can be described thus: NFAT reporter assay (luciferase) in Jurkat/NFAT-RE cells. The format is cell-based. The conditions noted are these: Homo sapiens, 0.02 μg/mL anti-CD3 antibody OKT3, 3 hours, read-out: Jurkat EC50 (uM) Cell Assay: Reporter Cell Variant: NFAT response element. The source says: To assess the ability of CSK inhibitors to activate LCK and stimulate signaling downstream of the T-cell receptor, an NFAT reporter assay was used for monitoring of LCK activation in cells through the activation of LCK-dependent signaling through a reporter assay. The Jurkat T-cell cell line was genetically engineered to express a luciferase reporter that is regulated by the NFAT-response element. (Clipstone, N. A., & Crabtree, G. R., Identification of calcineurin as a key signalling enzyme in T-lymphocyte activation, Nature, 357(6380), 695-697, 1992). Stimulation of the T-cell receptor with anti-CD3 antibody increases the expression of the luciferase reporter. To test the ability of CSK inhibitors to stimulate LCK and downstream T-cell signaling, the cells were stimulated with a suboptimal concentration of anti-CD3 ligand, to measure the ability of CSK inhibitors to increase luciferase expression.
This assay measures the signaling activity downstream of the T-cell receptor, specifically the ability of the NFAT transcription factor to be translocated to the nucleus and induce expression of a firefly luciferase gene. Jurkat/NFAT-RE cells stably expressing the NFAT reporter construct were purchased from BPS Bioscience. The assay was performed by plating 40,000 Jurkat/NFAT-RE cells in a 50 μL volume of serum-free growth media in a 96-well plate. Following an overnight incubation, the cells were treated with CSK inhibitors and 0.02 μg/mL anti-CD3 antibody OKT3 (BD Bioscience) for 3 hours at 37° C. High control wells were stimulated with DMSO and 5 μg/mL OKT3 to maximally stimulate the NFAT reporter, and low control wells were stimulated with DMSO and 0.02 μg/mL OKT3. Following the 3 hour incubation, the cells were assayed for viability using CellTiter-Fluor™ (Promega), and for luciferase expression using ONE-Glo™ (Promega). The ONE-Glo™ signal was normalized to the CellTiter-Fluor™ signal, and the percentage of NFAT activation relative to high and low controls was calculated. The data were analyzed by using nonlinear regression to generate EC50 values. Selective CSK inhibitors affect an increase in luciferase expression in the presence of low level stimulation of the T-cell receptor.

The next assay deals with T2, LCK (Homo sapiens, UniProt P06239).
T2 construct: purchased ProQinase
T2 sequence (P06239 whole entry): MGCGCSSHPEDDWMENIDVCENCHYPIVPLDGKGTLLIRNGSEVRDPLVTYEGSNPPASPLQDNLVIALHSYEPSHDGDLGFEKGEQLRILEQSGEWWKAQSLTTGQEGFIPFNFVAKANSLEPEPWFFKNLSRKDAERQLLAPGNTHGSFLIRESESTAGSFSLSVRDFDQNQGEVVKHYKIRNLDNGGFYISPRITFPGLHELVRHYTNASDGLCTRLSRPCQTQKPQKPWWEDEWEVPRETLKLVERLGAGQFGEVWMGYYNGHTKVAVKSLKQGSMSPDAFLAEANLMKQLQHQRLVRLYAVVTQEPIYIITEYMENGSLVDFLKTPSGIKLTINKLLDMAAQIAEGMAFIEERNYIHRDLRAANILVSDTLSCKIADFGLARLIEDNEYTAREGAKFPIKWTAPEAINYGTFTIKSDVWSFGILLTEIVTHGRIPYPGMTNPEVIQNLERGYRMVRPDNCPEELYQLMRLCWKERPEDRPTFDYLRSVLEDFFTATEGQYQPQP
Briefly: Human LCK enzymatic assay (AlphaScreen, Poly (Glu4-Tyr) substrate). The format is biochemical. The conditions noted are these: 100 uM ATP; read-out: LCK IC50 (uM) COFACTOR: 100 uM ATP. The procedure:
This assay measures the ability of LCK to phosphorylate a biotinylated peptide containing multiple tyrosine residues in vitro. The LCK enzyme was purchased from ProQinase. The biotinylated Poly (Glu4-Tyr) peptide substrate was purchased from Sigma-Aldrich. The LCK enzyme assay was performed using 1 ng LCK enzyme and 30 nM Poly (Glu4-Tyr) substrate in the presence of 25 mM Hepes pH 7.5, 10 mM MnCl2, 50 mM NaCl, 0.01% Tween-20, 0.5 mM DTT, 0.01% BSA, and 100 μM ATP. A 19 μL volume of the above reaction mixture was added to wells of 384-well AlphaPlate (PerkinElmer GA, USA) containing 1 μL of various concentrations of test compound or DMSO vehicle and incubated for 40 minutes at 25° C. 16 wells containing all the components of reaction mixture and 5% DMSO served as high control. 16 wells containing all the components except ATP of reaction mixture and 5% DMSO served as low control. The enzymatic reaction was stopped by the addition of 5 μL stop/detection mixture containing 25 mM Hepes pH 7.5 100 mM EDTA, and 10 μg/mL streptavidin-coated AlphaScreen donor beads (PerkinElmer GA, USA) and incubated for 20 minutes. A 5 μL mixture containing 25 mM Hepes pH 7.5, 100 mM EDTA, and 10 μg/mL anti-phosphotyrosine antibody PY20-coated AlphaScreen acceptor beads (PerkinElmer GA, USA) was added and the plate was incubated for 1 hour at room temperature. The streptavidin donor beads bind to the biotin moiety on the biotinylated Poly (Glu4-Tyr) substrate and the PY20 antibody-coated acceptor beads bind to tyrosine residues on the substrate that have been directly phosphorylated by LCK. Upon excitation of these beads with laser light at 680 nm, singlet oxygen was produced. This singlet oxygen was rapidly quenched, unless the AlphaScreen PY20 acceptor beads are in close proximity, in which case a proximity signal can be measured at 580 nm. In the presence of catalytic activity, there was a very strong proximity signal. Selective LCK inhibitors affect a decrease in this proximity signal through a decrease in phosphorylation of the Poly (Glu4-Tyr) substrate. The percentage of inhibition at individual concentrations relative to high and low controls was calculated. The data were analyzed by using nonlinear regression to generate IC50 values.

Our source for the IC50 and EC50 values is patent US20210315869A1, “COMPOUNDS AND METHODS FOR CSK MODULATION AND INDICATIONS THEREFOR” (Plexxikon Inc., priority 2020, published 2021).

T1 sequence (P41240 whole entry): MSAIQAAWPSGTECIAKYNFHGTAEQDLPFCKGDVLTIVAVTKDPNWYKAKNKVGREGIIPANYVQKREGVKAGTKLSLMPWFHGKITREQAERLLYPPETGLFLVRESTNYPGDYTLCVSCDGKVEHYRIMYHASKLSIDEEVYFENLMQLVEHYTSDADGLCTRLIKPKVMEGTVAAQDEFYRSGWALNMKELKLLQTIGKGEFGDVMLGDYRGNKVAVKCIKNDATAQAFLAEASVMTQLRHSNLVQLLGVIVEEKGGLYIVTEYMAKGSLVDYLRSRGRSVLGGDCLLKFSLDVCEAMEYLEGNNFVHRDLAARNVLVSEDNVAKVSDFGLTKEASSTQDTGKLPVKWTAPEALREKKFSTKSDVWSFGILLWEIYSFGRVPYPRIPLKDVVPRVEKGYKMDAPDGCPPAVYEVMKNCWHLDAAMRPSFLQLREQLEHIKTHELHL

As for `Nc1cc2c(cn1)cc(-c1c(F)ccc(NS(=O)(=O)c3ccc4ncsc4c3F)c1F)c(=O)n2CC1CC1` [P-0001, N-(3-(7-amino-1-(cyclopropylmethyl)-2-oxo-1,2-dihydro-1,6-naphthyridin-3-yl)-2,4-difluorophenyl)-7-fluorobenzo[d]thiazole-6-sulfonamide], the IC50 on CSK and at LCK was 0.001 to 0.5 µM each time. Also, the EC50 with Jurkat/NFAT-RE cells was in the range of 0.001 to 0.5 µM.
For the molecule `Nc1cc2c(cn1)cc(-c1c(F)ccc(NS(=O)(=O)c3cc4scnc4cc3F)c1F)c(=O)n2CC1CC1` [P-0002, N-(3-(7-amino-1-(cyclopropylmethyl)-2-oxo-1,2-dihydro-1,6-naphthyridin-3-yl)-2,4-difluorophenyl)-5-fluorobenzo[d]thiazole-6-sulfonamide], the values for the IC50 at CSK and on LCK were 0.001 to 0.5 µM and 0.5 to 5 µM, respectively. Also, the EC50 in the assay on Jurkat/NFAT-RE cells was 0.001 to 0.5 µM.
For the molecule `Nc1cc2c(cn1)cc(-c1c(F)ccc(NS(=O)(=O)c3cc4scnc4cc3F)c1F)c(=O)n2CC(F)F` [P-0003, N-(3-(7-amino-1-(2,2-difluoroethyl)-2-oxo-1,2-dihydro-1,6-naphthyridin-3-yl)-2,4-difluorophenyl)-5-fluorobenzo[d]thiazole-6-sulfonamide], the IC50 was in the range of 0.001 to 0.5 µM at CSK and 5 to 100 µM at LCK. Also, in the assay with Jurkat/NFAT-RE cells, the EC50 was in the range of 0.001 to 0.5 µM.
As for `COCCn1c(=O)c(-c2c(F)ccc(NS(=O)(=O)c3cc4scnc4cc3F)c2F)cc2cnc(N)cc21` [P-0004, N-(3-(7-amino-1-(2-methoxyethyl)-2-oxo-1,2-dihydro-1,6-naphthyridin-3-yl)-2,4-difluorophenyl)-5-fluorobenzo[d]thiazole-6-sulfonamide], the IC50 lay within 0.001 to 0.5 µM on CSK and 5 to 100 µM on LCK. Besides, the EC50 in the assay on Jurkat/NFAT-RE cells fell in the range of 0.5 to 5 µM.
Consider `CNc1cc2c(cn1)cc(-c1c(F)ccc(NS(=O)(=O)c3cc4scnc4cc3F)c1F)c(=O)n2CC1CC1` [P-0005, N-(3-(1-(cyclopropylmethyl)-7-(methylamino)-2-oxo-1,2-dihydro-1,6-naphthyridin-3-yl)-2,4-difluorophenyl)-5-fluorobenzo[d]thiazole-6-sulfonamide], for which the IC50 at CSK fell in the range of 0.001 to 0.5 µM; on LCK it was 5 to 100 µM. Besides, the EC50 with Jurkat/NFAT-RE cells lay within 0.001 to 0.5 µM.
As for `CC1(n2c(=O)c(-c3c(F)ccc(NS(=O)(=O)c4cc5scnc5cc4F)c3F)cc3cnc(N)cc32)CC1` [P-0006, N-(3-(7-amino-1-(1-methylcyclopropyl)-2-oxo-1,2-dihydro-1,6-naphthyridin-3-yl)-2,4-difluorophenyl)-5-fluorobenzo[d]thiazole-6-sulfonamide], the IC50 at CSK lay in the range of 0.001 to 0.5 µM; at LCK, 5 to 100 µM. In addition, the EC50 in the assay with Jurkat/NFAT-RE cells was 0.5 to 5 µM.
For `Nc1cc2[nH]c(=O)c(-c3c(F)ccc(NS(=O)(=O)c4cc5scnc5cc4F)c3F)cc2cn1` [P-0007, N-(3-(7-amino-2-oxo-1,2-dihydro-1,6-naphthyridin-3-yl)-2,4-difluorophenyl)-5-fluorobenzo[d]thiazole-6-sulfonamide], in that order: 0.001 to 0.5 µM, 5 to 100 µM and 0.5 to 5 µM.
Taken in the same sequence, the figures for `Nc1cc2c(cn1)cc(-c1c(F)ccc(NS(=O)(=O)c3cc4scnc4cc3F)c1F)c(=O)n2C1CC1` [P-0008, N-(3-(7-amino-1-cyclopropyl-2-oxo-1,2-dihydro-1,6-naphthyridin-3-yl)-2,4-difluorophenyl)-5-fluorobenzo[d]thiazole-6-sulfonamide] were 0.001 to 0.5 µM, 5 to 100 µM and 0.001 to 0.5 µM.
For `Nc1cc2c(cn1)cc(-c1c(F)ccc(NS(=O)(=O)c3cc4scnc4cc3F)c1F)c(=O)n2C1CC(F)(F)C1` [P-0009, N-(3-(7-amino-1-(3,3-difluorocyclobutyl)-2-oxo-1,2-dihydro-1,6-naphthyridin-3-yl)-2,4-difluorophenyl)-5-fluorobenzo[d]thiazole-6-sulfonamide], in that order: 0.001 to 0.5 µM, 5 to 100 µM and 0.5 to 5 µM.
`Nc1cc2c(cn1)cc(-c1c(F)ccc(NS(=O)(=O)c3ccc4ncsc4c3F)c1F)c(=O)n2C1CC1` [P-0027, N-(3-(7-amino-1-cyclopropyl-2-oxo-1,2-dihydro-1,6-naphthyridin-3-yl)-2,4-difluorophenyl)-7-fluorobenzo[d]thiazole-6-sulfonamide]: the IC50 on CSK lay within 0.001 to 0.5 µM. Also, the EC50 in the assay with Jurkat/NFAT-RE cells lay within 0.001 to 0.5 µM.
On to `Cc1c(-c2cccc(NS(=O)(=O)c3cc4scnc4cc3F)c2F)c(=O)n(C2CC2)c2cc(N)ncc12` [P-0028, N-(3-(7-amino-1-cyclopropyl-4-methyl-2-oxo-1,2-dihydro-1,6-naphthyridin-3-yl)-2-fluorophenyl)-5-fluorobenzo[d]thiazole-6-sulfonamide], for which the IC50 at CSK and at LCK was 5 to 100 µM throughout.
For `Nc1cc2c(cn1)cc(-c1cccc(NS(=O)(=O)c3cc4scnc4cc3F)c1F)c(=O)n2C1CC1` [P-0029, N-(3-(7-amino-1-cyclopropyl-2-oxo-1,2-dihydro-1,6-naphthyridin-3-yl)-2-fluorophenyl)-5-fluorobenzo[d]thiazole-6-sulfonamide], the IC50 lay in the range of 0.001 to 0.5 µM at CSK and 5 to 100 µM on LCK.
